This passage reports GI50 and TGI results from PubChem BioAssay (NCI).

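Interpolation was linear, between the two tested concentrations surrounding the appropriate level; five concentrations were tested over 48 hours in 96-well plates. GI50 marks 50% less growth. TGI: total growth inhibition.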

Test systems include MCF7 breast; K-562 leukemia; HCT-15 colon; SK-MEL-28 melanoma; U251 CNS; NCI-H23 lung; SN12C renal; HS 578T breast; SNB-19 CNS; UO-31 renal.
What all share (test): NCI tumour cell line growth inhibition, 48 h

As for `Nc1c(C(=O)c2ccc(C#CCN3CCOCC3)cc2)cnn1-c1ccc(F)cc1`, the GI50 in the experiment with MCF7 breast, in the experiment with K-562 leukemia, with HCT-15 colon, in the experiment on SK-MEL-28 melanoma, with U251 CNS and with NCI-H23 lung was over 25 µM in each case. Moreover, the GI50 in the experiment with SN12C renal, with HS 578T breast, in the experiment with SNB-19 CNS and with UO-31 renal was over 25 µM in each case. Also, the TGI in the experiment with MCF7 breast, in the experiment on K-562 leukemia, in the experiment with HCT-15 colon, in the experiment with SK-MEL-28 melanoma, with U251 CNS and in the experiment with NCI-H23 lung was over 25 µM throughout. Also, the TGI in the experiment with SN12C renal, with HS 578T breast, with SNB-19 CNS and in the experiment on UO-31 renal was over 25 µM each time.
As to `O=C1CC(C(=O)O)Cc2c(Br)ccc(O)c21` (stereo not given), the TGI in the experiment with MCF7 breast, in the experiment with K-562 leukemia, in the experiment on HCT-15 colon, in the experiment on SK-MEL-28 melanoma, with U251 CNS and with NCI-H23 lung was over 100 µM in each case. The TGI with SN12C renal, in the experiment with HS 578T breast, in the experiment with SNB-19 CNS and in the experiment with UO-31 renal was over 100 µM in each case.
For `O=C(COc1cccc(/C=C2\COc3ccccc3C2=O)c1)c1ccccc1`, the GI50 in the experiment with MCF7 breast was 1.98 µM; in the experiment on K-562 leukemia, 2.05 µM; with HCT-15 colon, 1.85 µM; in the experiment on SK-MEL-28 melanoma, 3.24 µM; with U251 CNS, 1.65 µM; in the experiment with NCI-H23 lung, 4.47 µM. Further, the GI50 with SN12C renal was 4.7 µM; in the experiment on HS 578T breast, 2.34 µM; in the experiment on SNB-19 CNS it was 11.8 µM; in the experiment with UO-31 renal, 1.77 µM. Besides, the TGI worked out at 4.27 µM with MCF7 breast; 5.65 µM in the experiment on K-562 leukemia; 4.45 µM in the experiment on HCT-15 colon; 10.7 µM with SK-MEL-28 melanoma; 3.03 µM in the experiment on U251 CNS; 16.1 µM with NCI-H23 lung. Also, the TGI is 19.8 µM with SN12C renal, over 100 µM with HS 578T breast, 24 µM in the experiment on SNB-19 CNS and 3.26 µM in the experiment on UO-31 renal.
As to `Nc1nc(=S)c2ncn(C3OC(CO)C(O)C3O)c2[nH]1` (stereo not given), the GI50 in the experiment on MCF7 breast is 0.389 µM; in the experiment with K-562 leukemia it was 0.49 µM; with HCT-15 colon it was 0.92 µM; in the experiment on SK-MEL-28 melanoma, 13.7 µM; with U251 CNS it was 6.5 µM; in the experiment with NCI-H23 lung, 0.776 µM. For the same compound, the GI50 was 3.98 µM in the experiment on SN12C renal, 2.27 µM with HS 578T breast, 33.1 µM in the experiment on SNB-19 CNS and 0.77 µM with UO-31 renal. The TGI is over 70.6 µM in the experiment on MCF7 breast; over 61.1 µM with K-562 leukemia; over 100 µM with HCT-15 colon; over 100 µM in the experiment on SK-MEL-28 melanoma; over 100 µM in the experiment on U251 CNS; over 100 µM with NCI-H23 lung. The TGI was over 100 µM in the experiment with SN12C renal, over 86.1 µM in the experiment on HS 578T breast, over 100 µM in the experiment with SNB-19 CNS and over 100 µM in the experiment on UO-31 renal.
As to `Cc1ccc(/C=C(/C#N)n2nnc3ncccc32)cc1`, the GI50 is 2.37 µM in the experiment on MCF7 breast; 0.545 µM in the experiment on K-562 leukemia; 1.45 µM in the experiment on HCT-15 colon; 2.17 µM with SK-MEL-28 melanoma; 3.41 µM in the experiment with U251 CNS; 3.09 µM in the experiment on NCI-H23 lung. The GI50 in the experiment on SN12C renal is 2.6 µM; in the experiment on HS 578T breast, 2.95 µM; in the experiment on SNB-19 CNS, 3.43 µM; with UO-31 renal, 2.01 µM. Further, the TGI with MCF7 breast is 18.1 µM; with K-562 leukemia it was over 100 µM; in the experiment with HCT-15 colon it was 16.7 µM; in the experiment with SK-MEL-28 melanoma, 31.3 µM; with U251 CNS, 14.1 µM; in the experiment with NCI-H23 lung, 17.9 µM. Moreover, the TGI with SN12C renal is 9.66 µM; with HS 578T breast, over 100 µM; with SNB-19 CNS, 16.8 µM; with UO-31 renal, 12.4 µM.
Consider `COC(=O)CC1C2(C)C3=C(C)C(c4ccoc4)CC3OC2C2OC(=O)C3(C)C=CC(=O)C1(C)C23` (stereo not given), for which the TGI with MCF7 breast is 1.95 µM; in the experiment on K-562 leukemia it was 4.82 µM; in the experiment with HCT-15 colon, 3.15 µM; in the experiment on SK-MEL-28 melanoma, 2.66 µM; in the experiment with U251 CNS it was 2.95 µM; in the experiment with NCI-H23 lung, 3.52 µM. In addition, the TGI was 2.58 µM in the experiment on SN12C renal, over 96.3 µM with HS 578T breast, 7.1 µM with SNB-19 CNS and 2.52 µM in the experiment on UO-31 renal.
As for `Cc1ccc(S(=O)(=O)OCC(=O)Nc2ccc(C(=O)O)c(O)c2)cc1`, the GI50 in the experiment on MCF7 breast is 23.9 µM; in the experiment on K-562 leukemia, 28.9 µM; in the experiment on HCT-15 colon it was 38.8 µM; in the experiment on SK-MEL-28 melanoma, 31.8 µM; in the experiment with U251 CNS, 16.3 µM; with NCI-H23 lung it was 29.4 µM. The GI50 was 27.9 µM in the experiment on SN12C renal, 20.3 µM in the experiment with HS 578T breast, 66.5 µM with SNB-19 CNS and 45.1 µM in the experiment on UO-31 renal. In addition, the TGI came to 121 µM with MCF7 breast; 120 µM with K-562 leukemia; 155 µM in the experiment on HCT-15 colon; 94.5 µM with SK-MEL-28 melanoma; 34.5 µM in the experiment with U251 CNS; 105 µM in the experiment with NCI-H23 lung. Moreover, the TGI with SN12C renal is 105 µM; in the experiment with HS 578T breast it was 61.8 µM; with SNB-19 CNS, 242 µM; with UO-31 renal it was 173 µM.
Regarding `CCSc1nc(NC(C)c2ccccc2)c2cnn(CO)c2n1` (stereo not given), the GI50 is 52.8 µM with MCF7 breast; 29.2 µM in the experiment on K-562 leukemia; 70.2 µM in the experiment with HCT-15 colon; 87.2 µM in the experiment on SK-MEL-28 melanoma; 74.8 µM in the experiment on U251 CNS; 18.4 µM with NCI-H23 lung. The GI50 in the experiment with SN12C renal is over 100 µM; in the experiment with HS 578T breast, 8.09 µM; with SNB-19 CNS it was over 100 µM; with UO-31 renal, 66.5 µM. The TGI in the experiment on MCF7 breast, with K-562 leukemia, in the experiment on HCT-15 colon, in the experiment with SK-MEL-28 melanoma, in the experiment on U251 CNS and with NCI-H23 lung was over 100 µM in each case. Also, the TGI with SN12C renal was over 100 µM; in the experiment on HS 578T breast, 99.4 µM; in the experiment with SNB-19 CNS, over 100 µM; in the experiment with UO-31 renal, over 100 µM.
In the case of `O=C(Nc1ccn(C2CC(I)C(COC(c3ccccc3)(c3ccccc3)c3ccccc3)O2)c(=O)n1)c1ccccc1` (stereo not given), the TGI in the experiment on MCF7 breast was over 31.6 µM; in the experiment with K-562 leukemia, 21.5 µM; in the experiment with HCT-15 colon it was 21.5 µM; in the experiment with SK-MEL-28 melanoma, 16.2 µM; in the experiment with U251 CNS it was 14.5 µM; in the experiment with NCI-H23 lung, 21.5 µM. Moreover, the TGI in the experiment on SN12C renal worked out at 12.6 µM; with HS 578T breast, 21.5 µM; in the experiment with SNB-19 CNS it was 21.5 µM; in the experiment on UO-31 renal it was 12.8 µM.
